# Test results reported in patent publication US8591908B2, “Immunogen for preparation of therapeutic vaccines or drugs for treatment of hepatitis B and the producing method and use thereof” (Institute of Immunology, PLA, priority 2002, dated 2013).
# Ends that are not written are not given here. * marks the point of attachment. Palmitoyl = CCCCCCCCCCCCCCCC(=O)*; Lauroyl = CCCCCCCCCCCC(=O)*
# How the values were obtained:
# [1] = tested on: 2215, E6 and T2 target cells; assay: FIG. 4: induced CTL cytotoxicity, 51Cr release test; type: cell-based, human; conditions: 10 ng test drug; E/T 12.5, 25, 50, 100
# Procedure: (§1) FIG. 4 indicated the effect of inducing cytotoxicity. […] Three days after the last stimulation, antigen-specific effector CTL cells were obtained, and their cytotoxic activities were measured by the standard ^51Cr release test and compared. […] Twenty-four hours after the last stimulation to HLA-A2+ human PBMC, the effects of the test drug to induce the proliferating INF-γ secreting CTL cells in peripheral blood lymphocytes were measured in the ELISPOT method and compared.
# [2] = tested on: HLA-A2+ human PBMC; assay: FIG. 4: IFN-γ secreting CTL cells, ELISPOT; type: cell-based; conditions: 24 h after last stimulation
# Procedure: as §1
# [3] = tested on: PBMCs from hepatitis B patient; assay: Lymphocyte activation (Th1/Th2) of PBMCs from hepatitis B patient; type: cell-based, human; conditions: IL-4, IL-10, IFN-γ in culture supernatants, acute and chronic hepatitis
# Text: Acute and chronic hepatitis blank control groups, acute hepatitis+/test drug group and chronic hepatitis+/test drug group were included to test the Th1/Th2 activation by Endogen kit or EELISPOT method.
# [4] = tested on: Balb/c mice; assay: ELISPOT test of induced cytotoxicity in immunized mice; type: in vivo; conditions: IFN-γ ELISPOT of PBMC
# Text: Balb/c mice of 2-3 Months old (both male and female) were divided into 8 groups, and were immunized with the present compound at both postpede palmas once a week for three times at different doses: 0.001 nmol, 0.01 nmol, 0.1 nmol, 0.5 nmol, 1 nmol, 10 nmol, 20 nmol, and 40 nmol respectively. Bloods were taken postorbitally from mice under sterile conditions on the 6th, 12th, 18th and 24th day after the end of immunization respectively and were anticoagulatant-treated. PBMCs were isolated by Ficoll-Hypaque method, and were cultured in RPMI1640 culture media (containing 10% calf serum, and 100μ/ml penicillin-streptomycin) (10^6/ml, 96-well culture plate) in vitro for one day. After they returned to the original growth state, they were used as test cells. ELISPOT 96-well cell culture plate was pre-coated with IFN-γ coating antibody overnight, each well was treated in triplicate. The wells were blocked with RPMI1640 containing 5% calf serum at room temperature for 1 hour. After drying in air, test cells were added (5×10^4 cells/100 μl/well, containing RPMI1640 media, 10% calf serum, 100μ/ml myciline, and 1 μg/ml peptide), wherein the PBMC of mice immunized with melan A27-35 peptide were set as negative control. […] Then the plate was washed again and dried in air, the substrate was added for visualization and the number of spots was counted.
# [5] = tested on: PBMCs from acute hepatitis B patient in convalescent phase; assay: Proliferation of lymphocytes in PBMC of acute hepatitis B patient, 3H-TdR; type: cell-based, human; conditions: 0.1 μg, 1 μg and 10 μg/ml with IL-2
# Procedure: Anticoagulant peripheral blood was collected aseptically from acute hepatitis B patient in convalescent phase, PBMCs were isolated by conventional Ficoll-Hypaque density gradient centrifugation and were cultured in RPMI1640 cultural media (containing 10% calf serum, 100 u/ml penicillin-streptomycin, L-glutamine) in vitro on 24-well cell culture plate at a concentration of 10^6/ml. Blank control group, test group, and Pre-S (2) control group were included. IL-2 (30 IU/ml) and test drug (0.1 μg/ml, 1 μg/ml, 10 μg/ml) were separately added into the wells. After the cells were cultured for 6 days, IL-2 and the test drug were added at the same doses to stimulate the cells again. Then 3H-TdR (1 uCi/ml) was added and further cultured for 18 hours. The cells were collected and tested by liquid scintillation.
substance,measurement,setting,value
"CH3(CH2)7CH═CH(CH2)—CO, CH3CH2CH═CHCH2CH═CH(CH2)7CO7KSSQYIKANSKFIGITEGGGDPRVRGLYFPA (not fully specified (N-terminus); printed as CH3(CH2)7CH═CH(CH2)—CO, CH3CH2CH═CHCH2CH═CH(CH2)7CO7KSSQYIKANSKFIGITEGGGDPRVRGLYFPA) [SEQ ID NO:3]","CTL effect, lysis of target cells",[1],"induce the CTL effect in human PBMC, and specifically lyzed and destroyed target cells"
same,proliferation of IFN-γ secreting cells,[2],induce the proliferation of IFN-γ secreting cells in human PBMC in a notable dose-effect dependence relation
CH3(CH2)10COKSSPADREGGGSLNFLGGTTVSSSDPRVRGLYFPA (Lauroyl-KSSPADREGGGSLNFLGGTTVSSSDPRVRGLYFPA) [SEQ ID NO:50],conversion of T-lymphocytes into Th1/Th2 type,[3],"induce the conversion of T-lymphocytes into both Th1 and Th2 types, with the conversion into Th1 type the most obvious"
CH3(CH2)14COKSSPADREAAAFLPSDFFPSVGGGDPRVRGLYFPA (Palmitoyl-KSSPADREAAAFLPSDFFPSVGGGDPRVRGLYFPA) [SEQ ID NO:56],minimum effective dose,[4],0.01 nmol
CH3(CH2)14COKSSQYIKANSKFIGITEAAALLCLIFLLVGGGDPRVRGLYFPA (Palmitoyl-KSSQYIKANSKFIGITEAAALLCLIFLLVGGGDPRVRGLYFPA) [SEQ ID NO:51],proliferation of PBMCs,[5],stimulated the proliferation of PBMCs from acute hepatitis B patient in convalescent phase in a manner of dose dependence
